Like-named read-outs stand apart in the source and are kept apart here.
How the values were obtained:
BRM = BRM (Homo sapiens, UniProt P51531); test: ATPase catalytic activity assay of BRM (ADP-Glo); assay type: biochemical; details: for IC50: read-out: BRM IC50 (μM)*
How it was run: (§1)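 In vitro biochemical ATPase assay; product ADP detected after removing leftover ATP and reconverting ADP to ATP for a luciferase signal.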

BRG-1 = BRG-1 (Homo sapiens, UniProt P51532); test: ATPase catalytic activity assay of BRG-1 (ADP-Glo); assay type: biochemical; details: ATPase catalytic activity, ADP-Glo; for IC50: read-out: BRG1 IC50 (μM)*; for Emax: read-out: BRG1 Max % Inhibition
Sequence of BRG-1 (P51532 whole entry): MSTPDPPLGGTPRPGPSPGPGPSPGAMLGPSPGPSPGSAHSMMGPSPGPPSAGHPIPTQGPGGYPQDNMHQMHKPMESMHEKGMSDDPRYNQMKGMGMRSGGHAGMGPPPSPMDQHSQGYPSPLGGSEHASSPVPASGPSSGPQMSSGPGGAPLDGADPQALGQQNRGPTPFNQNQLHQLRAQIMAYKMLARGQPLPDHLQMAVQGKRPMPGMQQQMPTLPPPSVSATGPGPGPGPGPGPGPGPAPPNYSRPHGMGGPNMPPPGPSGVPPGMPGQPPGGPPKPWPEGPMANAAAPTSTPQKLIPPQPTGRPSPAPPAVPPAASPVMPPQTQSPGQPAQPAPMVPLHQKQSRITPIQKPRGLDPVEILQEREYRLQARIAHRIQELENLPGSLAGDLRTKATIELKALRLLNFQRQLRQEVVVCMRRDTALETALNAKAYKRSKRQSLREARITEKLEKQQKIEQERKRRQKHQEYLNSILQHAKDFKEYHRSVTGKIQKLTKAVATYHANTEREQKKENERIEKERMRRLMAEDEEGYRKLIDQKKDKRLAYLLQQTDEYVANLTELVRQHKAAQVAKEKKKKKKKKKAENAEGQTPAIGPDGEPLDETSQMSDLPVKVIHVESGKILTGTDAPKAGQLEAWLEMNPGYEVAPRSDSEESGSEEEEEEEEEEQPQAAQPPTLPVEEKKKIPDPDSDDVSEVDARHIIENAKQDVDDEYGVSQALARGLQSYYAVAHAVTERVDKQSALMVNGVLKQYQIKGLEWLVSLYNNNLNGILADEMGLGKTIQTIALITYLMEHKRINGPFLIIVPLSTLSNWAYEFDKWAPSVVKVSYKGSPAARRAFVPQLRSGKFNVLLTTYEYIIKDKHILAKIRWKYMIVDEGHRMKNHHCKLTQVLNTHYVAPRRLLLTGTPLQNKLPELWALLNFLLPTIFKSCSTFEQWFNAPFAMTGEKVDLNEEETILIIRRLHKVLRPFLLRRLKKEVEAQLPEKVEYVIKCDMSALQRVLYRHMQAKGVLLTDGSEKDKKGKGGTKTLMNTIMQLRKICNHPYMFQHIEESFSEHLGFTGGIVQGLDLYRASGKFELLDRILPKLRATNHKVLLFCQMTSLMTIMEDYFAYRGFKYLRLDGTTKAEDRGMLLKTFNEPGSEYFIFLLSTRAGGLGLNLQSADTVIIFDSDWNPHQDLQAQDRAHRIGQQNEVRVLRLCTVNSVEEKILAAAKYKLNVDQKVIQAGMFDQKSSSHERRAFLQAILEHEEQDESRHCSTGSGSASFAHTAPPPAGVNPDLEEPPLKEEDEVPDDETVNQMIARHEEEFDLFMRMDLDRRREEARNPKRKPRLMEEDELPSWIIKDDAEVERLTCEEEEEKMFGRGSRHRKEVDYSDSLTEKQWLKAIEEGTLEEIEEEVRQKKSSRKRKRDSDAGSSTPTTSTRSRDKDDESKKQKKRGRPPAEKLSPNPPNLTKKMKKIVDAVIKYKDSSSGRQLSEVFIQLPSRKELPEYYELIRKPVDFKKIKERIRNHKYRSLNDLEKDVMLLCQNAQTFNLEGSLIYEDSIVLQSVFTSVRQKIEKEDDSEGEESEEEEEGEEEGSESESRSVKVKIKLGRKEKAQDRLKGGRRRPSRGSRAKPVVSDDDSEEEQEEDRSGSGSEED
How it was run: as §1

Sequence of BRM (P51531 whole entry): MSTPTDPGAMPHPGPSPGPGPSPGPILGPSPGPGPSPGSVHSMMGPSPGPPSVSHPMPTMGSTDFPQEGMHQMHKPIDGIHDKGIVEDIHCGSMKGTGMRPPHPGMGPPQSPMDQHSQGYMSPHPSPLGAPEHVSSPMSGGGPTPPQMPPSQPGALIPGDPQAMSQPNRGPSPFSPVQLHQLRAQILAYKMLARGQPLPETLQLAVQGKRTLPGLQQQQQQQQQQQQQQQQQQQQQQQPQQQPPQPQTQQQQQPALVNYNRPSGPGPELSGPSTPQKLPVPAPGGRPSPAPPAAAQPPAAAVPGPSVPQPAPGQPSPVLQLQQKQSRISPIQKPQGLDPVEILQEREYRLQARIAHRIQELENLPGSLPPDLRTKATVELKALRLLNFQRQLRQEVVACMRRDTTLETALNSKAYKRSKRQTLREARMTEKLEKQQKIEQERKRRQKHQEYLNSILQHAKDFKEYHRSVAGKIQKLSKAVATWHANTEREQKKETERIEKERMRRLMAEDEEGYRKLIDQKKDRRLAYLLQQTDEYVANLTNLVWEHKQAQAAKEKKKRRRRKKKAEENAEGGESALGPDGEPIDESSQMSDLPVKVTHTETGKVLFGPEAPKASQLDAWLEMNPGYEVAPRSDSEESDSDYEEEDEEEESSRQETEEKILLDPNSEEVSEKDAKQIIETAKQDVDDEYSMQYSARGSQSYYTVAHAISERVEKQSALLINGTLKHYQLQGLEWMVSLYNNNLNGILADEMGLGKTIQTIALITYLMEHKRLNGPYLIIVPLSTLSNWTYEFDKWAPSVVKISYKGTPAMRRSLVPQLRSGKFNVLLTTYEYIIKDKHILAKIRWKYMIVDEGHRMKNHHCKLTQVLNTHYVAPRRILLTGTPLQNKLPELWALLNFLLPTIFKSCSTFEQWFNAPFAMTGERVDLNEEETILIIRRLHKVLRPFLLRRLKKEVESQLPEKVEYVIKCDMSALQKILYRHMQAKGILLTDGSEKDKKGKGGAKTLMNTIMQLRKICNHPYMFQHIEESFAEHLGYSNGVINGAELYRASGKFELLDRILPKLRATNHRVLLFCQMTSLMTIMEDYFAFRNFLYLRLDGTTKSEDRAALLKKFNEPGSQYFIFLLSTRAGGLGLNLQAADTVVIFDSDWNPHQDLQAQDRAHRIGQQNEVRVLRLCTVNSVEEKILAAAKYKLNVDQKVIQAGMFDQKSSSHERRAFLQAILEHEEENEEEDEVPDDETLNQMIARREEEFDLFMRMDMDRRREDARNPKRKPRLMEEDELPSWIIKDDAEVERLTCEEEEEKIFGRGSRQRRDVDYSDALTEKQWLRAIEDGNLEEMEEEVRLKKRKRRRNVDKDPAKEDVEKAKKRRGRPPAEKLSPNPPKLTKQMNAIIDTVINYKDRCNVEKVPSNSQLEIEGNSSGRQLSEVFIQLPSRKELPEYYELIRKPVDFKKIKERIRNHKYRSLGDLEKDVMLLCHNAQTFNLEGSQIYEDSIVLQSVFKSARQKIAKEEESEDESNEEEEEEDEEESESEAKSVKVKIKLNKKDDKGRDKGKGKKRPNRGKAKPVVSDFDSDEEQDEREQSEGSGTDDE

Row | SMILES | BRM Max % Inhibition (BRM; 30 nM BRM, 400 μM ATP) | IC50 (BRM; 30 nM BRM, 400 μM ATP) | IC50 (BRG-1; 30 nM BRG-1, 400 μM ATP) | Emax (BRG-1; 30 nM BRG-1, 400 μM ATP) | BRM Max % Inhibition (BRM) | IC50 (BRM) | IC50 (BRG-1) | Emax (BRG-1)
1 | C[C@@H]1CN(c2cccc(-c3csc(NC(=O)CNC(=O)c4ccc5c(c4)[C@](C)(O)COC5)n3)c2)C[C@H](C)O1 [Compound 438, (S)-N-(2-((4-(3-((cis)-2,6-dimethylmorpholino)phenyl)thiazol-2-yl)amino)-2-oxoethyl)-4-hydroxy-4-methylisochromane-6-carboxamide] | >95% | 0.1 to 1 µM | 1 to 5 µM | > 95% |  |  |  | 
2 | CC1(C#N)CCOc2ccc(C(=O)NCC(=O)Nc3nc(-c4cccc([C@@H]5CC5(F)F)n4)cs3)cc21 (stereo in doubt) [Compound 380, (S)-4-cyano-N-(2-((4-(6-((S)-2,2-difluorocyclopropyl)pyridin-2-yl)thiazol-2-yl)amino)-2-oxoethyl)-4-methylchromane-6-carboxamide] |  |  |  |  | >85% | 0.1 to 1 µM | 1 to 5 µM | > 85%
3 | Cc1nccc(-c2cccc(-c3csc(NC(=O)CNC(=O)c4ccc5c(c4)[C@](C)(CO)CC5)n3)n2)n1 [Compound 215] |  |  |  |  | >95% | < 0.1 µM | 0.1 to 1 µM | > 80%
4 | C[C@@H]1CN(c2cccc(-c3csc(NC(=O)CNC(=O)c4ccc5c(c4)[C@@](C)(CO)CO5)n3)n2)C[C@H](C)O1 (single isomer, unassigned) [Compound 133] |  |  |  |  | >95% | 0.1 to 1 µM | 1 to 5 µM | > 70%
5 | C[C@@H]1CN(c2cccc(-c3csc(NC(=O)CNC(=O)c4cccc(C5(CO)COC5)c4)n3)c2)C[C@H](C)O1 [Compound 168, N-(2-((4-(3-((cis)-2,6-dimethylmorpholino)phenyl)thiazol-2-yl)amino)-2-oxoethyl)-3-(3-(hydroxymethyl)oxetan-3-yl)benzamide] |  |  |  |  | >90% | 0.1 to 1 µM | > 5 µM | > 50%
6 | COc1nc(C)cc(-c2cccc(-c3csc(NC(=O)CNC(=O)c4cccc(S(=O)(=O)C(C)C)c4)n3)c2)n1 [Compound 122, 3-isopropylsulfonyl-N-[2-[[4-[3-(2-methoxy-6-methyl-pyrimidin-4-yl)phenyl]thiazol-2-yl]amino]-2-oxoethyl]benzamide] |  |  |  |  | >95% | < 0.1 µM | < 0.1 µM | > 95%
7 | CC(C)(CN)c1cccc(C(=O)NCC(=O)Nc2nc(-c3cccc(-c4ccnc(CO)c4)c3)cs2)c1 [Compound 60, 3-(1-amino-2-methylpropan-2-yl)-N-(2-((4-(3-(2-(hydroxymethyl)pyridin-4-yl)phenyl)thiazol-2-yl)amino)-2-oxoethyl)benzamide] |  |  |  |  | >95% | < 0.1 µM | 0.1 to 1 µM | > 80%
8 | C[C@@]1(F)COCc2ccc(C(=O)NCC(=O)Nc3nc(-c4cccc(C#N)c4)cs3)cc21 [Compound 315, (S)-N-(2-((4-(3-cyanophenyl)thiazol-2-yl)amino)-2-oxoethyl)-4-fluoro-4-methylisochromane-6-carboxamide] |  |  |  |  | >95% | < 0.1 µM | 0.1 to 1 µM | > 95%
9 | C[C@@]1(C#N)COCc2ccc(C(=O)NCC(=O)Nc3nc(-c4cccc([C@@]56CCOC[C@@H]5C6)c4)cs3)cc21 [Compound 294, (R)-N-(2-((4-(3-((1R,6S)-3-oxabicyclo[4.1.0]heptan-6-yl)phenyl)thiazol-2-yl)amino)-2-oxoethyl)-4-cyano-4-methylisochromane-6-carboxamide] |  |  |  |  | >95% | < 0.1 µM | 0.1 to 1 µM | > 95%
10 | C[C@@H]1CN(c2cccc(-c3csc(NC(=O)CNC(=O)c4cccc([C@]5(F)C[C@H](F)C5)c4)n3)n2)C[C@H](C)O1 [Compound 358, 3-((1R,3R)-1,3-difluorocyclobutyl)-N-(2-((4-(6-((cis)-2,6-dimethylmorpholino)pyridin-2-yl)thiazol-2-yl)amino)-2-oxoethyl)benzamide] |  |  |  |  | >95% | < 0.1 µM | 0.1 to 1 µM | > 95%
11 | Cc1cnc(O)c(-c2cccc(-c3csc(NC(=O)CNC(=O)c4ccc5c(c4)[C@](C)(CO)CC5)n3)n2)c1 [Compound 263, (R)-N-(2-((4-(2′-hydroxy-5′-methyl-[2,3′-bipyridin]-6-yl)thiazol-2-yl)amino)-2-oxoethyl)-3-(hydroxymethyl)-3-methyl-2,3-dihydro-1H-indene-5-carboxamide] |  |  |  |  | >80% | 0.1 to 1 µM | 1 to 5 µM | > 40%
12 | COc1cccc(-c2csc(NC(=O)CNC(=O)c3ccc4c(c3)[C@](C)(C#N)COC4)n2)n1 [Compound 397, (R)-4-cyano-N-(2-((4-(6-methoxypyridin-2-yl)thiazol-2-yl)amino)-2-oxoethyl)-4-methylisochromane-6-carboxamide] |  |  |  |  | >95% | < 0.1 µM | 0.1 to 1 µM | > 95%
13 | CC1(C#N)CCOc2ccc(C(=O)NCC(=O)Nc3nc(-c4cccc([C@@H]5CC5(F)F)c4)cs3)cc21 (stereo in doubt) [Compound 429, (S)-4-cyano-N-(2-((4-(3-((S)-2,2-difluorocyclopropyl)phenyl)thiazol-2-yl)amino)-2-oxoethyl)-4-methylchromane-6-carboxamide] | >95% | < 0.1 µM | 1 to 5 µM | > 95% |  |  |  | 
14 | C[C@@H]1CN(c2cccc(-c3csc(NC(=O)CNC(=O)c4ccc5c(c4)[C@@](F)(C(F)F)CCO5)n3)c2)C[C@H](C)O1 [Compound 275, (R)-4-(difluoromethyl)-N-(2-((4-(3-((cis)-2,6-dimethylmorpholino)phenyl)thiazol-2-yl)amino)-2-oxoethyl)-4-fluorochromane-6-carboxamide] |  |  |  |  | >95% | < 0.1 µM | 0.1 to 1 µM | > 95%
15 | CC(C)(C)c1cccc(C(=O)NCC(=O)Nc2nc(-c3cccc(N4CCC4)c3)cs2)c1 [Compound 196, N-(2-((4-(3-(azetidin-1-yl)phenyl)thiazol-2-yl)amino)-2-oxoethyl)-3-(tert-butyl)benzamide] |  |  |  |  | >90% | 0.1 to 1 µM | 1 to 5 µM | > 60%
16 | C[C@@H]1CN(c2cccc(-c3csc(NC(=O)CNC(=O)c4ccc5c(c4)[C@H](C)COC5)n3)n2)C[C@H](C)O1 [Compound 321, (S)-N-(2-((4-(6-((cis)-2,6-dimethylmorpholino)pyridin-2-yl)thiazol-2-yl)amino)-2-oxoethyl)-4-methylisochromane-6-carboxamide] |  |  |  |  | >90% | < 0.1 µM | 0.1 to 1 µM | > 90%
17 | Cc1cncc(-c2cccc(-c3csc(NC(=O)CNC(=O)c4ccc5c(c4)C(C)(CO)CC5)n3)c2)n1 (stereo in doubt) [Compound 432, (S)-3-(hydroxymethyl)-3-methyl-N-(2-((4-(3-(6-methylpyrazin-2-yl)phenyl)thiazol-2-yl)amino)-2-oxoethyl)-2,3-dihydro-1H-indene-5-carboxamide] | >95% | < 0.1 µM | 0.1 to 1 µM | > 95% |  |  |  | 
18 | C[C@@H]1CN(c2cccc(-c3csc(NC(=O)CNC(=O)c4ccc5c(c4)C(C)(CO)COC5)n3)c2)C[C@H](C)O1 (stereo in doubt) [Compound 373, (S)-N-(2-((4-(3-((cis)-2,6-dimethylmorpholino)phenyl)thiazol-2-yl)amino)-2-oxoethyl)-4-(hydroxymethyl)-4-methylisochromane-6-carboxamide] |  |  |  |  | >90% | 0.1 to 1 µM | 1 to 5 µM | > 90%
19 | Cc1cc(-c2cccc(-c3csc(NC(=O)CNC(=O)c4cccc(C(C)(C)C(C)C)c4)n3)c2)cc(C)n1 [Compound 90] |  |  |  |  | >60% | 1 to 5 µM | > 5 µM | < 30%
20 | C[C@@H]1CN(c2cccc(-c3csc(NC(=O)CNC(=O)c4cccc5c4OCC[C@@]5(C)CO)n3)c2)C[C@H](C)O1 [Compound 138, (R)-N-(2-((4-(3-((cis)-2,6-dimethylmorpholino)phenyl)thiazol-2-yl)amino)-2-oxoethyl)-4-(hydroxymethyl)-4-methylchroman-8-carboxamide] |  |  |  |  | >90% | 0.1 to 1 µM | > 5 µM | > 50%
21 | Cc1nccc(-c2cccc(-c3csc(NC(=O)CNC(=O)c4cccc(C(C)(C)CN)c4)n3)c2)n1 [Compound 95] |  |  |  |  | >95% | < 0.1 µM | 0.1 to 1 µM | > 90%
22 | Cc1nccc(-c2cccc(-c3csc(NC(=O)CNC(=O)c4cccc(S(=O)(=O)C(C)C)c4)n3)c2)n1 [Compound 13, 3-(isopropylsulfonyl)-N-(2-((4-(3-(2-methylpyrimidin-4-yl)phenyl)thiazol-2-yl)amino)-2-oxoethyl)benzamide] |  |  |  |  | >95% | < 0.1 µM | < 0.1 µM | > 95%
23 | C[C@]1(CO)CCc2ccc(C(=O)NCC(=O)Nc3nc(-c4cccc(-c5cnccn5)n4)cs3)cc21 [Compound 169, (S)-3-(hydroxymethyl)-3-methyl-N-(2-oxo-2-((4-(6-(pyrazin-2-yl)pyridin-2-yl)thiazol-2-yl)amino)ethyl)-2,3-dihydro-1H-indene-5-carboxamide] |  |  |  |  | >80% | 0.1 to 1 µM | > 5 µM | > 50%

Source: patent publication US12685735B2 (Foghorn Therapeutics Inc., priority 2020, dated 2026)
